The subject of the assay is L1210 leukemia ip in BDF1 mice, survival T/C. In words: NCI In Vivo Anticancer Drug Screen. Data for tumor model L1210 Leukemia (intraperitoneal) in B6D2F1 (BDF1) mice. The settings on record: endpoint: mean survival time, higher = longer survival. The essentials:
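In this screen, tumor-bearing mice given compound are compared to those given vehicle, and their survival values are reported as a treated-to-control quotient.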

The mark [1] stands for this setting: dose: 100.0 mg/kg/injection, schedule: Q04DX003 (ip), vehicle: saline with Tween-80.
The mark [2] stands for this setting: dose: 200.0 mg/kg/injection, schedule: Q04DX003 (ip), vehicle: saline with Tween-80.
Setting [3] is: dose: 400.0 mg/kg/injection, schedule: Q04DX003 (ip), vehicle: saline with Tween-80.
Where [4] appears, read: dose: 100.0 mg/kg/injection, schedule: Q01DX009 (ip), vehicle: saline with Tween-80.
Where [5] appears, read: dose: 200.0 mg/kg/injection, schedule: Q01DX009 (ip), vehicle: saline with Tween-80.
Setting [6] is: dose: 400.0 mg/kg/injection, schedule: Q01DX009 (ip), vehicle: saline with Tween-80.
The mark [7] stands for this setting: dose: 100.0 mg/kg/injection, schedule: Q04DX003 (ip), vehicle: Klucel (hydroxypropylcellulose) (HPC).
[8] abbreviates: dose: 200.0 mg/kg/injection, schedule: Q04DX003 (ip), vehicle: Klucel (hydroxypropylcellulose) (HPC).
Where [9] appears, read: dose: 400.0 mg/kg/injection, schedule: Q04DX003 (ip), vehicle: Klucel (hydroxypropylcellulose) (HPC).
Where [10] appears, read: dose: 100.0 mg/kg/injection, schedule: Q04DX002 (ip), vehicle: Klucel (hydroxypropylcellulose) (HPC).
Where [11] appears, read: dose: 200.0 mg/kg/injection, schedule: Q04DX002 (ip), vehicle: Klucel (hydroxypropylcellulose) (HPC).
Where [12] appears, read: dose: 400.0 mg/kg/injection, schedule: Q04DX002 (ip), vehicle: Klucel (hydroxypropylcellulose) (HPC).
Setting [13] is: dose: 100.0 mg/kg/injection, schedule: Q01DX009 (ip), vehicle: Klucel (hydroxypropylcellulose) (HPC).
[14] abbreviates: dose: 400.0 mg/kg/injection, schedule: Q01DX009 (ip), vehicle: Klucel (hydroxypropylcellulose) (HPC).
Setting [15] is: dose: 100.0 mg/kg/injection, schedule: Q01DX001 (ip), vehicle: carboxymethylcellulose (CMC).
Setting [16] is: dose: 200.0 mg/kg/injection, schedule: Q01DX001 (ip), vehicle: carboxymethylcellulose (CMC).
The mark [17] stands for this setting: dose: 400.0 mg/kg/injection, schedule: Q01DX001 (ip), vehicle: carboxymethylcellulose (CMC).
Setting [18] is: dose: 100.0 mg/kg/injection, schedule: Q01DX001 (ip), vehicle: saline.

Molecules are shown by their SMILES. Toxic doses and inconclusive results are not listed.

In the case of `CC(Cl)CN(N=O)C(=O)NC1CCCCC1` (stereo not drawn), the T/C was 96 % of control (dose: 16.0 mg/kg/injection, schedule: Q01DX001 (ip), vehicle: other); 104 % of control (dose: 31.0 mg/kg/injection, schedule: Q01DX001 (ip), vehicle: other); 102 % of control (dose: 62.0 mg/kg/injection, schedule: Q01DX001 (ip), vehicle: other); 104 % of control (dose: 125.0 mg/kg/injection, schedule: Q01DX001 (ip), vehicle: other); 117 % of control (dose: 187.0 mg/kg/injection, schedule: Q01DX001 (ip), vehicle: other); 94 % of control (dose: 250.0 mg/kg/injection, schedule: Q01DX001 (ip), vehicle: other). Besides, the T/C by setting is: (dose: 375.0 mg/kg/injection, schedule: Q01DX001 (ip), vehicle: other) 122 % of control; (dose: 500.0 mg/kg/injection, schedule: Q01DX001 (ip), vehicle: other) 167 % of control; (dose: 750.0 mg/kg/injection, schedule: Q01DX001 (ip), vehicle: other) 187 % of control.
As for `O=S(=O)(Nc1ccc(Br)c2ccccc12)c1ccccc1`, the T/C (dose: 25.0 mg/kg/injection, schedule: Q01DX001 (ip), vehicle: saline sonified) was 97 % of control; the T/C (dose: 50.0 mg/kg/injection, schedule: Q01DX001 (ip), vehicle: saline sonified) is 92 % of control; the T/C (dose: 100.0 mg/kg/injection, schedule: Q01DX001 (ip), vehicle: saline sonified) is 92 % of control.
On to `Cc1cc(CC(O)(C(F)(F)F)C(F)(F)F)c(C#N)c(=O)[nH]1`, for which the T/C under setting [1] is 97 % of control, the T/C under setting [2] is 97 % of control and the T/C under setting [3] was 97 % of control.
For the compound `NN(CC(=O)O)c1ccccc1`, the T/C is 100 % of control under setting [4], 105 % of control under setting [5] and 94 % of control under setting [6].
In the case of `CCCCNC(=O)CC#N`, the T/C runs as follows: under setting [7], 104 % of control; under setting [8], 107 % of control; under setting [9], 107 % of control.
Take `COC(=O)C(Cc1ccccc1)NC(=O)/C=C/N(CCCl)CCCl` (stereo not drawn): the T/C is 97 % of control (dose: 10.0 mg/kg/injection, schedule: Q01DX Z (ip), vehicle: other); 96 % of control (dose: 20.0 mg/kg/injection, schedule: Q01DX Z (ip), vehicle: other); 89 % of control (dose: 40.0 mg/kg/injection, schedule: Q01DX Z (ip), vehicle: other); 102 % of control (dose: 80.0 mg/kg/injection, schedule: Q01DX Z (ip), vehicle: other).
`NC(=O)N/N=C/c1cccs1`: the T/C runs as follows: (dose: 25.0 mg/kg/injection, schedule: Q04DX003 (ip), vehicle: saline with Tween-80) 95 % of control; (dose: 50.0 mg/kg/injection, schedule: Q04DX003 (ip), vehicle: saline with Tween-80) 103 % of control; under setting [1], 106 % of control.
Consider `Nc1ccc(N=Nc2ccccc2)c(N)c1`, for which the T/C was 95 % of control (dose: 100.0 mg/kg/injection, schedule: Q01DX009 (ip), vehicle: saline); 101 % of control (dose: 200.0 mg/kg/injection, schedule: Q01DX009 (ip), vehicle: saline); 95 % of control (dose: 400.0 mg/kg/injection, schedule: Q01DX009 (ip), vehicle: saline).
Turning to `CCOC(=O)CNc1cc(Cl)cc(Cl)c1`, the T/C under setting [10] is 100 % of control, the T/C under setting [11] is 96 % of control and the T/C under setting [12] is 96 % of control.
Regarding `CN1CCCCCC1`, the T/C (dose: 50.0 mg/kg/injection, schedule: Q01DX009 (ip), vehicle: acetone) is 86 % of control and the T/C (dose: 100.0 mg/kg/injection, schedule: Q01DX009 (ip), vehicle: acetone) was 110 % of control.
For the compound `COc1cccc(/C(=C/c2ccc([N+](=O)[O-])cc2)C(=O)Nc2ccc(S(=O)(=O)F)cc2)c1`, the T/C is, setting by setting: under setting [13], 101 % of control; (dose: 200.0 mg/kg/injection, schedule: Q01DX009 (ip), vehicle: Klucel (hydroxypropylcellulose) (HPC)) 90 % of control; under setting [14], 90 % of control.
For `CCOc1ccccc1NC1=C(OC)C(=O)C(Nc2ccccc2OCC)=C(OC)C1=O`, the T/C is, setting by setting: (dose: 50.0 mg/kg/injection, schedule: Q01DX001 (ip), vehicle: carboxymethylcellulose (CMC)) 97 % of control; under setting [15], 103 % of control; under setting [13], 95 % of control; under setting [7], 98 % of control; under setting [16], 101 % of control; under setting [8], 90 % of control. Also, the T/C was 113 % of control under setting [17], 90 % of control under setting [14] and 101 % of control under setting [9].
Take `O=C(c1ccsc1)C(O)c1ccccc1` (stereo not drawn): the T/C runs as follows: under setting [15], 97 % of control; under setting [16], 87 % of control; under setting [17], 103 % of control.
For the compound `Cc1cc([N+](=O)[O-])c2nnnn2c1`, the T/C runs as follows: (dose: 100.0 mg/kg/injection, schedule: Q01DX001 (ip), vehicle: other) 108 % of control; (dose: 200.0 mg/kg/injection, schedule: Q01DX001 (ip), vehicle: other) 90 % of control.
Consider `Cc1cccc(-c2nnc(C(Cl)(Cl)Cl)o2)c1`, for which the T/C is 106 % of control under setting [7], 97 % of control under setting [8] and 97 % of control under setting [9].
Consider `CCOC(=O)C(Cc1c[nH]c2ccccc12)(NC(C)=O)C(=O)OCC`, for which the T/C is 88 % of control under setting [4], 90 % of control under setting [5] and 94 % of control under setting [6].
With `O=C(COc1ccc(Cl)cc1Cl)Nc1c(Cl)cc(Cl)cc1Cl`, the T/C is, setting by setting: under setting [10], 99 % of control; under setting [11], 108 % of control; under setting [12], 86 % of control.
Turning to `CC(C)(SCc1ccccc1)C(NC(=O)OCc1ccccc1)C(=O)O` (stereo not drawn), the T/C by setting is: (dose: 12.5 mg/kg/injection, schedule: Q01DX009 (ip), vehicle: DMSO) 92 % of control; (dose: 25.0 mg/kg/injection, schedule: Q01DX009 (ip), vehicle: DMSO) 92 % of control; (dose: 50.0 mg/kg/injection, schedule: Q01DX009 (ip), vehicle: DMSO) 88 % of control; (dose: 100.0 mg/kg/injection, schedule: Q04DX002 (ip), vehicle: DMSO) 95 % of control; (dose: 200.0 mg/kg/injection, schedule: Q04DX002 (ip), vehicle: DMSO) 97 % of control.
For the compound `O=C(Nc1cccc2ccccc12)C(F)(F)F`, the T/C was 93 % of control under setting [18]; 98 % of control under setting [4]; 90 % of control under setting [1]; 104 % of control under setting [5]; 95 % of control under setting [2]; 98 % of control under setting [6]. Further, the T/C under setting [3] was 93 % of control.
As for `CC(C)OP1(=O)OCC(C)O1` (stereo not drawn), the T/C under setting [18] was 102 % of control; the T/C (dose: 200.0 mg/kg/injection, schedule: Q01DX001 (ip), vehicle: saline) was 98 % of control; the T/C (dose: 400.0 mg/kg/injection, schedule: Q01DX001 (ip), vehicle: saline) is 102 % of control.
On to `O=[N+]([O-])c1cc(Cl)ccc1S(=O)(=O)O`, for which the T/C reads like this: under setting [7], 101 % of control; under setting [8], 93 % of control; under setting [9], 98 % of control.
With `CCCCCCCC[Se](=O)O`, the T/C reads like this: (dose: 5.0 mg/kg/injection, schedule: Q01DX001 (ip), vehicle: carboxymethylcellulose (CMC)) 95 % of control; (dose: 10.0 mg/kg/injection, schedule: Q01DX001 (ip), vehicle: carboxymethylcellulose (CMC)) 109 % of control; (dose: 20.0 mg/kg/injection, schedule: Q01DX001 (ip), vehicle: carboxymethylcellulose (CMC)) 109 % of control.

(Values after PubChem BioAssay AID248 (DTP/NCI, 2004).)
